Assay results reported in patent US8598122B2, “Antagonistic peptides for frizzled-1 and frizzled-2” (Universiteit Maastricht, priority 2009, dated 2013).
Entries after “also recorded” stand apart in the source; their conditions may differ. Where a SMILES comes first, the peptide text is derived from it.

Key:
mouse Fzd-1 = biological target: T1, mouse Fzd-1 (Mus musculus, UniProt O70421); experiment: Antagonism of Wnt3a activation of mouse Fzd-1 (data not shown); format: cell-based
T1 construct: expressed in transfected cells
From the text: (§1) In FIG. 3, Panel E, the efficacy of UM206 to block the Wnt3a-induced activation of luciferase activity in HEK293 superTOPflash cells transfected with different Fzds is shown.

human Fzd-2 = biological target: T2, human Fzd-2 (Homo sapiens, UniProt Q14332); experiment: Antagonism of Wnt3a activation of human Fzd-2 (data not shown); format: cell-based
T2 construct: expressed in transfected cells
From the text: as §1

[1] = test system: C-FIT cells (cardiac fibroblasts immortalized with telomerase); experiment: Migration (wound/scratch) assay with C-FIT cells overexpressing Fzd-1 or -2; format: cell-based, rat
Protocol: For this assay, we used rat cardiac fibroblasts, which were immortalized with telomerase, the C-FIT cell line. This cell line was characterized previously and resembles features of primary cardiac fibroblasts. C-FIT cells were plated, treated when they were 70% confluent and a wound was made with a pipette tip at the moment of 100% confluence.
This assay was first tested with the natural ligand Wnt3a, in combination with frizzled-1 and -2 overexpression. […] Next step was to see whether the antagonist could counteract this. (See FIG. 4.)
Day 1: • Plate cells in 12-well plates
Day 2: • Transfection (see protocol)
Day 3: • Addition of conditioned medium
Day 4: • Make a scratch. This is time point zero.
Making pictures every six hours and analyzing the scratch width.
Cells were plated on day 0, and cultured until 70% confluence before transfection or treatment. Migration assays started 48 hours after transfection and/or treatment. The time point where the scratch was made, is indicated as 0 hours. Scratch width was measured at this time point, and also after 6, 12, and 24 hours.

Pharmacokinetics in rats = format: in vivo
[2] = test system: mice with myocardial infarction; experiment: Myocardial infarction model in mice, UM206 by osmotic minipump; format: in vivo
Protocol: All animals were subjected to extensive echocardiography studies for the assessment of myocardial infarct size, LV cavity dimensions and ventricular function. Echocardiography examination was performed under 2% isofluorane. Echocardiograms were recorded with Philips Sonos 5500 ultrasound system (Philips, Eindhoven, the Netherlands) using a 20-MHz linear probe.
The animals were anaesthetized with urethane ([…] body weight, i.p., Sigma-Aldrich) followed by intubation and connected to a rodent ventilator (Hugo Sachs, March-Hugstetten, Germany). Body temperature was maintained at 37° C. The mice were then allowed to stabilize prior to hemodynamic measurements. A high-fidelity catheter tip micromanometer (Mikro-tip1.4F, SPR-671; Millar Instruments, Houston TX, USA) was inserted through the right carotid artery into the left ventricular cavity. Ventricular pressure was measured. Maximal positive and negative pressure development (+dP/dt and −dP/dt) and heart rate were determined on a beat-to-beat basis. The heart was then stimulated by an i.v. ramp-infusion of dobutamine (Sigma-Aldrich) using a micro-injection pump (Model 200 Series, KdScientific, Boston, Mass., USA).
One-half of the hearts of the mice was embedded in paraffin and cut in 4 μm sections. The paraffin sections were rehydrated and washed in PBS. One section was stained with AZAN, allowing an accurate determination of the infarct size. To visualize the myofibroblasts in the infarct area, the sections were incubated with an antibody directed against a-smooth muscle actin (Sigma-Aldrich), followed by incubation with the peroxidase-conjugated secondary antibody (Vector laboratories). Nuclei were visualized by hematoxylin. Photos were taken with a Leica (CTR500, 63x/0.85) camera and analyzed with the Quantimet program (QWin/QGo). An examiner blinded to the groups of the animals obtained all measurements. For the experiments with Rhodamine-labeled UM206, frozen sections (4 μm) of mouse kidney and small intestine were used.

[3] = five weeks treatment, vs saline

T2 sequence (Q14332 24-565): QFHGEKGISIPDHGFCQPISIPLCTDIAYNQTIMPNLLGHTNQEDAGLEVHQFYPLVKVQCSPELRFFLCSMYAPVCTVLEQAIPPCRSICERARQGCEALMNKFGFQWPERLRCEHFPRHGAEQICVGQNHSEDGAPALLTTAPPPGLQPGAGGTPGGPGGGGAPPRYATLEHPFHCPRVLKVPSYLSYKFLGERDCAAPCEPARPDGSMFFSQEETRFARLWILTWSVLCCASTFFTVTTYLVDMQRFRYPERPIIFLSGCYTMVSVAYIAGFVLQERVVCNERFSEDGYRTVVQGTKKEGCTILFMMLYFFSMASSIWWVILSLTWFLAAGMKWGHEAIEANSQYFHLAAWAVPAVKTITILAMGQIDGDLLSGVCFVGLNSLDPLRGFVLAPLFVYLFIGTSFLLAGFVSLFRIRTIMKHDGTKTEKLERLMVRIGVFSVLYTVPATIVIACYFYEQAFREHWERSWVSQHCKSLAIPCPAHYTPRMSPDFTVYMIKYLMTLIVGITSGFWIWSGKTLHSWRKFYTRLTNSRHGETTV
T1 sequence (O70421 69-642): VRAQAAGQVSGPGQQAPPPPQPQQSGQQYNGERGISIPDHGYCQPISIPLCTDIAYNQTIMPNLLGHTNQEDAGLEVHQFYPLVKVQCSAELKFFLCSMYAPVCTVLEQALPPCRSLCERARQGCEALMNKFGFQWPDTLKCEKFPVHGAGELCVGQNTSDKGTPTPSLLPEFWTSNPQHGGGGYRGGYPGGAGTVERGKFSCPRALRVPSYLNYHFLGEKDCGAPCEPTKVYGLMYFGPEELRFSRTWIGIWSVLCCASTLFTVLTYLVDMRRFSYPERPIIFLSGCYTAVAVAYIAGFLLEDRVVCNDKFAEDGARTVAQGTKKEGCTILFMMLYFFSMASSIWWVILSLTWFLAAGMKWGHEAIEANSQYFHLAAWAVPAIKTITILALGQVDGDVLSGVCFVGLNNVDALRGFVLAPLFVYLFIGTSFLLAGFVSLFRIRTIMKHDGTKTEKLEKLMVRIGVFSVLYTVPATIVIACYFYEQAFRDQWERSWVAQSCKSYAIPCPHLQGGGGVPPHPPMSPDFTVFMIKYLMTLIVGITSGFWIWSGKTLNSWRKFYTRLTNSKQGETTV

Structure (SMILES): CSCC[C@H](NC(=O)CNC(=O)[C@H](CCC(=O)O)NC(=O)[C@H](CO)NC(=O)[C@@H](NC(=O)[C@H](CCCCN)NC(=O)[C@H](CC(N)=O)NC(=O)[C@H](CS)NC(C)=O)[C@@H](C)O)C(=O)N[C@@H](CC(=O)O)C(=O)NCC(=O)N[C@@H](CS)C(=O)N[C@@H](CCC(=O)O)C(=O)N[C@@H](CC(C)C)C(N)=O [UM206, Ac-Cys-Asn-Lys-Thr-Ser-Glu-Gly-Met-Asp-Gly-Cys-Glu-Leu-NH2] (Ac-CNKTSEGMDGCEL-NH2)
- Antagonizing activation of mouse Fzd-1 by Wnt3a (mouse Fzd-1): fully effective
- Antagonizing activation of human Fzd-2 by Wnt3a (human Fzd-2): fully effective
- effect of UM206 alone on cell migration [1]: no effect
- Counteraction of Wnt3a/Wnt5a-induced attenuation of migration ([1]; UM206 1.10^−8 M, Fzd-1 or -2 overexpression): migration was reset to the migration speed of the control; also recorded: blocked completely; also recorded: block this effect completely
- half-life (Pharmacokinetics in rats): around 90 minutes
- tangents on the pressure time curve (dP/dt) ([2]; Millar catheter in left ventricle, vs saline): significantly steeper
- change of ejection fraction (echocardiography) ([2]; UM206-treated vs saline): doubling
- reduction in end diastolic volume of the left ventricle ([2]; UM206-treated vs saline): 40%
- AoD ([2]; echocardiography, AVG): 0.18 cm
- EDV_L ([2]; echocardiography, AVG): 0.132 cm^3
- EF_L ([2]; echocardiography, AVG): 31.4%
- ESV_L ([2]; echocardiography, AVG): 0.090 cm^3
- FS ([2]; echocardiography, AVG): 13.20%
- IVS anterior ([2]; echocardiography, AVG): 8.10%
- IVSd anterior wall ([2]; echocardiography, AVG): 0.07 cm
- IVSd posterior wall ([2]; echocardiography, AVG): 0.09 cm
- IVSs anterior wall ([2]; echocardiography, AVG): 0.07 cm
- IVSs posterior wall ([2]; echocardiography, AVG): 0.14 cm
- LVAs ([2]; echocardiography, AVG): 0.30 cm^2
- LVIDd ([2]; echocardiography, AVG): 0.59 cm
- LVIDs ([2]; echocardiography, AVG): 0.52 cm
- SV_L ([2]; echocardiography, AVG): 0.041 cm^3
- LVLd ([2]; echocardiography, AVG, first listing (r8)): 0.91 cm
- LVLs ([2]; echocardiography, AVG, first listing (r10)): 0.86 cm
- LVLd ([2]; echocardiography, AVG, second listing (r12)): 0.95 cm
- LVLs ([2]; echocardiography, AVG, second listing (r13)): 0.89 cm
- LVAd ([2]; echocardiography, mice post-MI, AVG): 0.38 cm^2
- mortality / survival after MI ([2]; five weeks after MI, 6 microgram/kg/day minipump, saline 35% died): not a single mouse had died; also recorded: completely prevented the mortality
- wet lung weight of surviving saline-treated mice higher than in UM206-treated mice ([2]; five weeks post-MI): 40%
- blood vessels in the infarct area [2, 3]: increased amount of blood vessels
- collagen levels in the infarct area [2, 3]: reduced collagen levels
- a-SMA levels in infarcts (qPCR, Western blotting) ([2]; five-week-old infarcts, vs saline): significantly higher
- Diastolic pressure ([2]; hemodynamic measurements, AVG): 1.27 mmHg
- Left ventricular pressure ([2]; hemodynamic measurements, AVG): 10.14 mmHg
- Maximum negative slope ([2]; hemodynamic measurements, AVG): −2542.08 mmHg/sec
- Maximum negative slope/pressure ([2]; hemodynamic measurements, AVG): 32.84 s⁻¹
- Maximum positive slope ([2]; hemodynamic measurements, AVG): 5343.84 mmHg/sec
- Maximum positive slope/pressure ([2]; hemodynamic measurements, AVG): 69.13 s⁻¹
- Pressure of negative slope ([2]; hemodynamic measurements, AVG): −9.44 mmHg
- Pressure of positive slope ([2]; hemodynamic measurements, AVG): 17.78 mmHg
- Systolic pressure ([2]; hemodynamic measurements, AVG): 27.93 mmHg
- Heart rate ([2]; hemodynamic measurements, mean of 26 animals): 106.32 beats/min
- amount of myofibroblasts ([2]; in vivo model of myocardial infarction, in comparison to 4%): 20%
- adverse effects of chronic administration ([2]; mouse, in vivo): did not observe any adverse effects
- effects on other organs known to contain Fzd-2, including kidney and small intestine ([2]; mouse, in vivo): did not observe any effects
- myofibroblast numbers in the infarct area relative to saline-treated mice ([2]; two weeks post-MI): more than four-fold; also recorded: four-fold
- infarct area size ([2]; vs saline-treated mice, 2 and 5 weeks after MI): significantly smaller
- thickness of the infarct area ([2]; vs saline, both time points): significantly thicker
